The numbers were not newly measured in patent US11478425B2, “Extended release compositions comprising pyridostigmine” (priority 2017, dated 2022), which cites them from elsewhere.

For the compound `CN(C)C(=O)Oc1ccc[n+](C)c1` [pyridostigmine], the bioavailability (NDA #020414) is listed as 10-20%. Also, for the setting “oral”, the elimination half-life was 3 to 5 h and the “time-to-maximum peak plasma concentration” value is 1 to 2 h.
